From patent US7612211B2, “Benzimidazole TRPV1 inhibitors” (Janssen Pharmaceutica N.V., priority 2006, dated 2009)

Target: T1, hTRPV1 (Homo sapiens, UniProt Q8NER1)
T1 construct: expressed in transfected cells; host or cells: HEK293
Experiment: Human TRPV1 (hTRPV1) functional assay, FLIPR intracellular Ca2+, capsaicin challenge
Format: cell-based
Conditions: HEK293 cells expressing hTRPV1, capsaicin 0.030 μM challenge; for IC50: derived from a variety of test concentrations, read-out: IC50 value (symbol c); for inhibition at 0.5 µM: test concentration of 0.5 μm, read-out: percent inhibition (symbol a); for inhibition at 0.2 µM: test concentration of 0.2 μm, read-out: percent inhibition (symbol b)
Summary of the method: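 HEK293 cells expressing the channel, loaded with Calcium 3 dye, were exposed to compounds for 5 min before capsaicin 0.030 μM (~80% maximal). FLIPR Ca2+ read; IC50/EC50 from quadruplicate concentration-response, or percent inhibition at 0.5 μm or 0.2 μm.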

T1 sequence (Q8NER1 whole entry): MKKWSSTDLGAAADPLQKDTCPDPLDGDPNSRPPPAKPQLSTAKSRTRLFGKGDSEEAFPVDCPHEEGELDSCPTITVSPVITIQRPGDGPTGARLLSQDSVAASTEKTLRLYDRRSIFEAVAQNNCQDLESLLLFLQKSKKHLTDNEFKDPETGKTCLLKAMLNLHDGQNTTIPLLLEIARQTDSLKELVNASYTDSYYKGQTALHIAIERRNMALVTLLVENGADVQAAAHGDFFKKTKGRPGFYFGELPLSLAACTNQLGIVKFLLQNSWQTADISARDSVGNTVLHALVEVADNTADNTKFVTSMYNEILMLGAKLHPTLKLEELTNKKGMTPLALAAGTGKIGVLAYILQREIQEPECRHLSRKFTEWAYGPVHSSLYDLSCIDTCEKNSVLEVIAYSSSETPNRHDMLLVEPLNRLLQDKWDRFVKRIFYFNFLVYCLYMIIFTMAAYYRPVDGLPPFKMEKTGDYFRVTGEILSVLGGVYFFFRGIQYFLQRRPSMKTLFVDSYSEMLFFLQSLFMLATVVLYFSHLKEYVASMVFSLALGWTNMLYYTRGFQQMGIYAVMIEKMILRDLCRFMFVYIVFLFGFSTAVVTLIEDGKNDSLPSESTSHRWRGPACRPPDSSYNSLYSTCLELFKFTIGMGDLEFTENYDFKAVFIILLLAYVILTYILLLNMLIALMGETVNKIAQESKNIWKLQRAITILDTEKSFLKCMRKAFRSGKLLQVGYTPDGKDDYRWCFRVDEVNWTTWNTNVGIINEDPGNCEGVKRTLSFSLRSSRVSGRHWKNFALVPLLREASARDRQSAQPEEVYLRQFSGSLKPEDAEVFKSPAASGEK

| IC50 [nM] | inhibition at 0.5 µM [%] | inhibition at 0.2 µM [%] | Compound |
| --- | --- | --- | --- |
| 3 | 94 | – | CN(C)S(=O)(=O)c1ccccc1-c1ccc2[nH]c(COc3ccc(C(F)(F)F)cc3)nc2c1 [Cpd 106, N,N-dimethyl-2-[2-(4-trifluoromethyl-phenoxymethyl)-1H-benzoimidazol-5-yl]-benzenesulfonamide] |
| – | – | 21 | CN(CCO)C(=O)c1ccccc1-c1ccc2[nH]c(COc3ccc(C(F)(F)F)cc3)nc2c1 [Cpd 155, N-(2-hydroxy-ethyl)-N-methyl-2-[2-(4-trifluoromethyl-phenoxymethyl)-1H-benzoimidazol-5-yl]-benzamide] |
| 6 | – | 100 | CC(C)(C)c1ccc(OCc2nc3cc(-c4ccccc4S(N)(=O)=O)ccc3[nH]2)cc1 [Cpd 32, 2-[2-(4-tert-butyl-phenoxymethyl)-1H-benzoimidazol-5-yl]-benzenesulfonamide] |
| 16 | – | 99 | OCC(O)c1ccccc1-c1ccc2[nH]c(COc3ccc(C(F)(F)F)cc3)nc2c1 (stereo not shown) [Cpd 150, 1-{2-[2-(4-trifluoromethyl-phenoxymethyl)-1H-benzoimidazol-5-yl]-phenyl}-ethane-1,2-diol] |
| – | 71 | – | NS(=O)(=O)c1ccccc1-c1ccc2[nH]c(COc3ccc(F)cc3)nc2c1 [Cpd 5, 2-[2-(4-fluoro-phenoxymethyl)-1H-benzoimidazol-5-yl]-benzenesulfonamide] |
| 13 | – | – | NS(=O)(=O)c1ccccc1-c1ccc2[nH]c(COc3ccc(Cl)cc3)nc2c1 [Cpd 7, 2-[2-(4-chloro-phenoxymethyl)-1H-benzoimidazol-5-yl]-benzenesulfonamide] |
| 32 | 98 | – | NS(=O)(=O)c1ccccc1-c1ccc2[nH]c(COc3ccc4ccccc4c3)nc2c1 [Cpd 36, 2-[2-(naphthalen-2-yloxymethyl)-1H-benzoimidazol-5-yl]-benzenesulfonamide] |
| 12 | 98 | – | Cc1ccc(OCc2nc3cc(-c4ccccc4S(N)(=O)=O)ccc3[nH]2)cc1 [Cpd 27, 2-(2-p-tolyloxymethyl-1H-benzoimidazol-5-yl)-benzenesulfonamide] |
| 85 | – | 96 | CCOc1ccc(OCc2nc3cc(-c4ccccc4S(C)(=O)=O)ccc3[nH]2)cc1 [Cpd 81, 2-(4-ethoxy-phenoxymethyl)-5-(2-methanesulfonyl-phenyl)-1H-benzoimidazole] |
| 6.6 | – | – | NS(=O)(=O)c1ccccc1-c1ccc2[nH]c(COc3ccc(Br)cc3)nc2c1 [Cpd 8, 2-[2-(4-bromo-phenoxymethyl)-1H-benzoimidazol-5-yl]-benzenesulfonamide] |
| – | 4 | – | FC(F)(F)c1ccc(OCc2nc3cc(-c4ccccc4)ccc3[nH]2)cc1 [Cpd 126, 5-phenyl-2-(4-trifluoromethyl-phenoxymethyl)-1H-benzoimidazole] |

More lines, now with the values behind:

| Compound | IC50 [nM] | inhibition at 0.5 µM [%] | inhibition at 0.2 µM [%] |
| --- | --- | --- | --- |
| NS(=O)(=O)c1ccccc1-c1ccc2[nH]c(COc3ccc(SC(F)(F)F)cc3)nc2c1 [Cpd 34, 2-[2-(4-trifluoromethylsulfanyl-phenoxymethyl)-1H-benzoimidazol-5-yl]-benzenesulfonamide] | 13 | 100 | – |
| CC(O)CNC(=O)c1ccccc1-c1ccc2[nH]c(COc3ccc(C(F)(F)F)cc3)nc2c1 (stereo not shown) [Cpd 154, N-(2-hydroxy-propyl)-2-[2-(4-trifluoromethyl-phenoxymethyl)-1H-benzoimidazol-5-yl]-benzamide] | – | – | 68 |
| CC(C)(O)c1ccccc1-c1ccc2[nH]c(COc3ccc(C4CC4)cc3)nc2c1 [Cpd 163, 2-{2-[2-(4-cyclopropyl-phenoxymethyl)-1H-benzoimidazol-5-yl]-phenyl}-propan-2-ol] | 3 | – | 98 |
| CS(=O)(=O)c1ccccc1-c1ccc2[nH]c(COc3ccc(F)c(F)c3)nc2c1 [Cpd 63, 2-(3,4-difluoro-phenoxymethyl)-5-(2-methanesulfonyl-phenyl)-1H-benzoimidazole] | – | – | 37 |
| CS(=O)(=O)c1ccccc1-c1ccc2[nH]c(COc3ccc4ccccc4c3)nc2c1 [Cpd 80, 5-(2-methanesulfonyl-phenyl)-2-(naphthalen-2-yloxymethyl)-1H-benzoimidazole] | 14 | – | 99 |
| CNS(=O)(=O)c1ccccc1-c1ccc2[nH]c(COc3cccc(C(F)(F)F)c3)nc2c1 [Cpd 52, N-methyl-2-[2-(3-trifluoromethyl-phenoxymethyl)-1H-benzoimidazol-5-yl]-benzenesulfonamide] | 35 | – | 99 |
| NS(=O)(=O)c1ccc(F)cc1-c1ccc2[nH]c(COc3ccc(C(F)(F)F)cc3)nc2c1 [Cpd 134, 4-fluoro-2-[2-(4-trifluoromethyl-phenoxymethyl)-1H-benzoimidazol-5-yl]-benzenesulfonamide] | 16 | 98 | – |
| Oc1ccccc1-c1ccc2[nH]c(COc3ccc(C(F)(F)F)cc3)nc2c1 [Cpd 119, 2-[2-(4-trifluoromethyl-phenoxymethyl)-1H-benzoimidazol-5-yl]-phenol] | – | 14 | – |
| CCOc1ccc(OCc2nc3cc(-c4ccccc4S(N)(=O)=O)ccc3[nH]2)cc1 [Cpd 33, 2-[2-(4-ethoxy-phenoxymethyl)-1H-benzoimidazol-5-yl]-benzenesulfonamide] | 44 | 100 | – |
| CS(=O)(=O)c1ccccc1-c1ccc2[nH]c(COc3ccc(Cl)cc3F)nc2c1 [Cpd 66, 2-(4-chloro-2-fluoro-phenoxymethyl)-5-(2-methanesulfonyl-phenyl)-1H-benzoimidazole] | 81 | – | 85 |
| CS(=O)(=O)c1ccccc1-c1ccc2[nH]c(COc3ccc(Cl)cc3Cl)nc2c1 [Cpd 64, 2-(2,4-dichloro-phenoxymethyl)-5-(2-methanesulfonyl-phenyl)-1H-benzoimidazole] | – | – | 58 |
| O=S(=O)(c1ccccc1-c1ccc2[nH]c(COc3ccc(C(F)(F)F)cc3)nc2c1)C(F)(F)F [Cpd 158, 5-(2-trifluoromethanesulfonyl-phenyl)-2-(4-trifluoromethyl-phenoxymethyl)-1H-benzoimidazole] | – | – | 13 |
| NS(=O)(=O)c1ccccc1-c1ccc2[nH]c(COc3ccccc3)nc2c1 [Cpd 26, 2-(2-phenoxymethyl-1H-benzoimidazol-5-yl)-benzenesulfonamide] | 177 | 87 | – |
| CC(C)(C)C(O)c1ccccc1-c1ccc2[nH]c(COc3ccc(C(F)(F)F)cc3)nc2c1 (stereo not shown) [Cpd 145, 2,2-dimethyl-1-{2-[2-(4-trifluoromethyl-phenoxymethyl)-1H-benzoimidazol-5-yl]-phenyl}-propan-1-ol] | – | – | 12 |
| CS(=O)(=O)c1ccccc1-c1ccc2[nH]c(COc3ccc(Cl)c(Cl)c3)nc2c1 [Cpd 65, 2-(3,4-dichloro-phenoxymethyl)-5-(2-methanesulfonyl-phenyl)-1H-benzoimidazole] | 58 | – | 91 |
| NS(=O)(=O)c1ccccc1-c1ccc2[nH]c(CNc3ccc(C(F)(F)F)cc3)nc2c1 [Cpd 47, 2-{2-[(4-trifluoromethyl-phenylamino)-methyl]-1H-benzoimidazol-5-yl}-benzenesulfonamide] | – | – | 46 |
| CC(=O)c1ccc(OCc2nc3cc(-c4ccccc4S(C)(=O)=O)ccc3[nH]2)cc1 [Cpd 79, 1-{4-[5-(2-methanesulfonyl-phenyl)-1H-benzoimidazol-2-ylmethoxy]-phenyl}-ethanone] | – | – | 61 |
| NS(=O)(=O)c1ccccc1-c1ccc2[nH]c(CS(=O)(=O)c3ccc(OC(F)(F)F)cc3)nc2c1 [Cpd 46, 2-[2-(4-trifluoromethoxy-benzenesulfonylmethyl)-1H-benzoimidazol-5-yl]-benzenesulfonamide] | – | – | 5 |
| Cc1cc(C)cc(OCc2nc3cc(-c4ccccc4S(C)(=O)=O)ccc3[nH]2)c1 [Cpd 90, 2-(3,5-dimethyl-phenoxymethyl)-5-(2-methanesulfonyl-phenyl)-1H-benzoimidazole] | – | – | 31 |
| CN(C)C(=O)C(O)c1ccccc1-c1ccc2[nH]c(COc3ccc(C(F)(F)F)cc3)nc2c1 (stereo not shown) [Cpd 148, N,N-dimethyl-2-hydroxy-2-{2-[2-(4-trifluoromethyl-phenoxymethyl)-1H-benzoimidazol-5-yl]-phenyl}-acetamide] | 58 | – | 89 |
| CC(=O)Nc1ccc(OCc2nc3cc(-c4ccccc4S(C)(=O)=O)ccc3[nH]2)cc1 [Cpd 95, N-{4-[5-(2-methanesulfonyl-phenyl)-1H-benzoimidazol-2-ylmethoxy]-phenyl}-acetamide] | – | – | 1 |
| CC(C)(O)CS(=O)(=O)c1ccccc1-c1ccc2[nH]c(COc3ccc(C(F)(F)F)cc3)nc2c1 [Cpd 159, 2-methyl-1-{2-[2-(4-trifluoromethyl-phenoxymethyl)-1H-benzoimidazol-5-yl]-benzenesulfonyl}-propan-2-ol] | 22 | – | 90 |
| CC(C)c1ccc(OCc2nc3cc(-c4ccccc4S(N)(=O)=O)ccc3[nH]2)cc1 [Cpd 28, 2-[2-(4-isopropyl-phenoxymethyl)-1H-benzoimidazol-5-yl]-benzenesulfonamide] | 8.9 | 98 | – |
| CS(=O)(=O)Nc1ccc(-c2ccc3[nH]c(COc4ccc(C(F)(F)F)cc4)nc3c2)cc1 [Cpd 103, N-{4-[2-(4-trifluoromethyl-phenoxymethyl)-1H-benzoimidazol-5-yl]-phenyl}-methanesulfonamide] | – | 7 | – |
| NS(=O)(=O)c1ccc(C(F)(F)F)cc1-c1ccc2[nH]c(COc3ccc(C(F)(F)F)cc3)nc2c1 [Cpd 132, 4-trifluoromethyl-2-[2-(4-trifluoromethyl-phenoxymethyl)-1H-benzoimidazol-5-yl]-benzenesulfonamide] | 85 | 100 | – |
